Data taken from patent US20240277663A1, “PHARMACEUTICAL KITS AND USES THEREOF FOR TREATING COLORECTAL CANCER” (priority 2023, published 2024).
Marks after values point to notes of the source that are not given here.

Key:
[1] = test system: CT26 allograft tumor (MSS subtype colorectal carcinoma); experiment: CT26 subcutaneous tumor model, multiple doses of ABT-301 with or without RMP1-14; type: in vivo, mouse; conditions: for Tumor size: Day 27 after treatments, alone or + RMP1-14 200 μg, means ± SEM
Experimental: Treatments were administered for indicated period (27 days) or until humane endpoints. Ten mice were used in each group. […] RMP1-14 was prepared with PBS.

[2] = target: HDAC1 (Homo sapiens, UniProt Q13547); experiment: HDAC enzymatic activity assay (fluorogenic, Reaction Biology)
HDAC1, sequence (Q13547 whole entry): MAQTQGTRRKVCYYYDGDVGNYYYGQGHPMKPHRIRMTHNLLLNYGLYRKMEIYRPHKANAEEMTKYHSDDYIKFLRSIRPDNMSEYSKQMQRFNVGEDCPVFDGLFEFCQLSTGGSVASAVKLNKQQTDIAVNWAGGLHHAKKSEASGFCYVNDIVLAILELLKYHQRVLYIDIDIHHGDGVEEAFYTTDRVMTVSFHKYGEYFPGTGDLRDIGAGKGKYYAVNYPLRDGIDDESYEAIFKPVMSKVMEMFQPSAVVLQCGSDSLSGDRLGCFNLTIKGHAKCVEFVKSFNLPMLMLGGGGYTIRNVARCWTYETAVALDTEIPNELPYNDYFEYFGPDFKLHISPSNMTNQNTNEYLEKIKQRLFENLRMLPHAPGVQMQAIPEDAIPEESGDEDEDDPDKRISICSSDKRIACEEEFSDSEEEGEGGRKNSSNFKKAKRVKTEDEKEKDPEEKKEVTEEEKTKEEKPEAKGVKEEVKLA

[3] = target: HDAC3 (Homo sapiens, UniProt O15379); experiment: as above
HDAC3, sequence (O15379 whole entry): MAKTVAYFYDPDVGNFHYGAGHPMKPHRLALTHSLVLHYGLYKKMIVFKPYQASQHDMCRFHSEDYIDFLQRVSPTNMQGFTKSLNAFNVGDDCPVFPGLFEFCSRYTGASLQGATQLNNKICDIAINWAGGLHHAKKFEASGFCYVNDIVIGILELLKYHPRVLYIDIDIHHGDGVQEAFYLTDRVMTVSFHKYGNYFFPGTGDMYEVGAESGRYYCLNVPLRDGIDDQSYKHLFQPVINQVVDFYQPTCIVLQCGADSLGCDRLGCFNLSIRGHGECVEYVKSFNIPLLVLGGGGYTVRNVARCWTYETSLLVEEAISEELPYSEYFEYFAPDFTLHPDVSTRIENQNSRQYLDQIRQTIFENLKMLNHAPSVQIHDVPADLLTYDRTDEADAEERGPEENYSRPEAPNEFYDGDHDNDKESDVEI
HDAC3, sequence (Q9Y618 395-489 partner limits assumed): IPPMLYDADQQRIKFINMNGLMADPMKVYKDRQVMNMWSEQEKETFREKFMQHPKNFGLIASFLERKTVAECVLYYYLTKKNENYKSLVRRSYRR

[4] = target: T1, HDAC8 (Homo sapiens, UniProt Q9BY41); experiment: as above
T1 sequence (Q9BY41 1-377): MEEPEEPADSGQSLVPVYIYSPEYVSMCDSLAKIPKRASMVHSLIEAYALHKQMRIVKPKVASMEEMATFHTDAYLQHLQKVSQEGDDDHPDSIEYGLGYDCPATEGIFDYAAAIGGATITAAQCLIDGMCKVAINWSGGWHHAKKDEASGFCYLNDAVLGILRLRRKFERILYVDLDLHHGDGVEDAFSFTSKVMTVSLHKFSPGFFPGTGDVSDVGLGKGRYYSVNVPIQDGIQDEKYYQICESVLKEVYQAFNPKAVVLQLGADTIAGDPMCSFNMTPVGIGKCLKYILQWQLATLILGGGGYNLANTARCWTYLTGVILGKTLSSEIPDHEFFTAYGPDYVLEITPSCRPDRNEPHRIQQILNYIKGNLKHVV

[5] = target: HDAC4 (Homo sapiens, UniProt P56524); experiment: as above
HDAC4, sequence (P56524 whole entry): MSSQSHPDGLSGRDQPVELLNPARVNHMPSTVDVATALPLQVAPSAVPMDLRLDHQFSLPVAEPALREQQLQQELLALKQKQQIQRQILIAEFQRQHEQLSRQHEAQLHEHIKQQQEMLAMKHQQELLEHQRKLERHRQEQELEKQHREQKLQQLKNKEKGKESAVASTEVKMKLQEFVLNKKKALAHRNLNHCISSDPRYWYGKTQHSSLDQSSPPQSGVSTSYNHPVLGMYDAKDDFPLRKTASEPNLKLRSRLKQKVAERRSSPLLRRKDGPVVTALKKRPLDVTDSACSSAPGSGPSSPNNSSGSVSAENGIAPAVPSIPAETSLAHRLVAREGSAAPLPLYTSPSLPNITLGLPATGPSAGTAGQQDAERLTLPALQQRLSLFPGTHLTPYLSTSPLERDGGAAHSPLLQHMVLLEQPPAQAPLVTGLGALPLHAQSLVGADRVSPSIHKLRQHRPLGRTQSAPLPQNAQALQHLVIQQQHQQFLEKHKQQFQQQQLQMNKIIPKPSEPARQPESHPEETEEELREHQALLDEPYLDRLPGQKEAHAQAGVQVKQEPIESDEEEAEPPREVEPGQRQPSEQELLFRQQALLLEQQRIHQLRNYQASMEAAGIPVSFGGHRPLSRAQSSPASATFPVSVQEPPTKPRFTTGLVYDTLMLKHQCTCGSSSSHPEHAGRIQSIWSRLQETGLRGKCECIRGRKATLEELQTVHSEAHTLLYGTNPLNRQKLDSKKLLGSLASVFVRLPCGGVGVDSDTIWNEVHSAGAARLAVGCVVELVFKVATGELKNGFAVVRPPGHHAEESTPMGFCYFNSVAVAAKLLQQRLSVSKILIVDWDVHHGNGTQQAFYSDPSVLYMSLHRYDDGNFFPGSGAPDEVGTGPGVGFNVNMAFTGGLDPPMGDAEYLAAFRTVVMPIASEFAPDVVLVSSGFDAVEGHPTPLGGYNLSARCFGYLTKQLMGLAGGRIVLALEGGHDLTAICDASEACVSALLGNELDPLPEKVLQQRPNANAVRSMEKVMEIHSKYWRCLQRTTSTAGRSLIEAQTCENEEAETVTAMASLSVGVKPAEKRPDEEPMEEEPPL

[6] = target: HDAC5 (Homo sapiens, UniProt Q9UQL6); experiment: as above
HDAC5, sequence (Q9UQL6 whole entry): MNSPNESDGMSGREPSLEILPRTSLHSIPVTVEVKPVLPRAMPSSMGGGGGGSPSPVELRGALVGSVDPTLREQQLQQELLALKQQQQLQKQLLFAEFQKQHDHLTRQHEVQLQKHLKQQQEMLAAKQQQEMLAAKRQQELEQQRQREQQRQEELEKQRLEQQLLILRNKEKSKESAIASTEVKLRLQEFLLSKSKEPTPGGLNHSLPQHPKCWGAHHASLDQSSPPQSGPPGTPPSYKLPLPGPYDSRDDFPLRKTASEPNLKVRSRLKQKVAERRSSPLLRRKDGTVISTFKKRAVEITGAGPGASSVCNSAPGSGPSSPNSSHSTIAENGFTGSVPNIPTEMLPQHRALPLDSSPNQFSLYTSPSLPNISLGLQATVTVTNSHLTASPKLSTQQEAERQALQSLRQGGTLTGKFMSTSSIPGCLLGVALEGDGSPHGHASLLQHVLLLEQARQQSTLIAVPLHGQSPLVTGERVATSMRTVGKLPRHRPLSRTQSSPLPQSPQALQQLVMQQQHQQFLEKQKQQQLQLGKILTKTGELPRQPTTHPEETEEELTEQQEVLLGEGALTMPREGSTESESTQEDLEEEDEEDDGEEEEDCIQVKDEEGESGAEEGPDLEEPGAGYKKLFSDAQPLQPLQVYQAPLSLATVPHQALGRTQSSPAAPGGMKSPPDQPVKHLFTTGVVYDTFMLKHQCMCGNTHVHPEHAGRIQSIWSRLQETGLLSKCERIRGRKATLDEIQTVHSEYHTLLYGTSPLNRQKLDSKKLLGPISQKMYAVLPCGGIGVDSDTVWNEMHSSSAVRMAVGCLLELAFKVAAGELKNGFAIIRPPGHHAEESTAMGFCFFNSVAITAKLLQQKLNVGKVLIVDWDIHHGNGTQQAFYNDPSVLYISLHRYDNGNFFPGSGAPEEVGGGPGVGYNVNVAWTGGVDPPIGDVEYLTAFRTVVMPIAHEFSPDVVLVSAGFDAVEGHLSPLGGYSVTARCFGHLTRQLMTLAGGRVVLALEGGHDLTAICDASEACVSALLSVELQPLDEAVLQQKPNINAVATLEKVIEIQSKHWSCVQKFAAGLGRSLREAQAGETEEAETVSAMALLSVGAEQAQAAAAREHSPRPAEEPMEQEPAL

[7] = target: T2, HDAC6 (Homo sapiens, UniProt Q9UBN7); experiment: as above
T2 sequence (Q9UBN7 1-1215): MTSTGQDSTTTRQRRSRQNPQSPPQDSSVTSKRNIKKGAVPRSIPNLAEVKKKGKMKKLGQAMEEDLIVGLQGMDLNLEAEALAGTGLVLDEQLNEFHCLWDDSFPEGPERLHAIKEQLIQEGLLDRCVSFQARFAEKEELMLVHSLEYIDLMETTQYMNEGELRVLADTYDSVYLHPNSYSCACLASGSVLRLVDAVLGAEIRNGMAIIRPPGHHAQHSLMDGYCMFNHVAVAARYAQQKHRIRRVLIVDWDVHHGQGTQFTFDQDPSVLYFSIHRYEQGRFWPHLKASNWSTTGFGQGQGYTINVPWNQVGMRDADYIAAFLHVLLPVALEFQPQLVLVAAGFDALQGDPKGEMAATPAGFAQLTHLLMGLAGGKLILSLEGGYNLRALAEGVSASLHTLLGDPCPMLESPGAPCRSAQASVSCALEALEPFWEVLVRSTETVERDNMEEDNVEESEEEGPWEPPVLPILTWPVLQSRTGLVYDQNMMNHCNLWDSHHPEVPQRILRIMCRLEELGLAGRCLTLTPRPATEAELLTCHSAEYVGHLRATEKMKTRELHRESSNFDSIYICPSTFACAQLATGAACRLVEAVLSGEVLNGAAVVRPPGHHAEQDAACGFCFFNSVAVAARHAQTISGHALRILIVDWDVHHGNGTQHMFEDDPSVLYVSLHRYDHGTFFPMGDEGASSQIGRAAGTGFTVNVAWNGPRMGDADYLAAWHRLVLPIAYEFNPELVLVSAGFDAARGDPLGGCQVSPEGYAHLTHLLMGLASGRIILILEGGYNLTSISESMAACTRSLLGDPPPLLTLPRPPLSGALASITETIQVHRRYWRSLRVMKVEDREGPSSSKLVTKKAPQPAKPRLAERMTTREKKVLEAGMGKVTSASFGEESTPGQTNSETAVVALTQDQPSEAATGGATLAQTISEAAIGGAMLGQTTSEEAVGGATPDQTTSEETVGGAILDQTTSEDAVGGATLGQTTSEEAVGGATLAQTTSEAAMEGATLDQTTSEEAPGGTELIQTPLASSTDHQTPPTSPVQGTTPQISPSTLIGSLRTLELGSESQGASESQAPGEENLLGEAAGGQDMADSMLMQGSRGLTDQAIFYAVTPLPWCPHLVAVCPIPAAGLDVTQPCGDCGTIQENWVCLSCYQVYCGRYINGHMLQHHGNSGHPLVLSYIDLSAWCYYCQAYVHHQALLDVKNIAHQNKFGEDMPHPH

[8] = target: T3, HDAC10 (Homo sapiens, UniProt Q969S8); experiment: as above
T3 sequence (Q969S8 1-669): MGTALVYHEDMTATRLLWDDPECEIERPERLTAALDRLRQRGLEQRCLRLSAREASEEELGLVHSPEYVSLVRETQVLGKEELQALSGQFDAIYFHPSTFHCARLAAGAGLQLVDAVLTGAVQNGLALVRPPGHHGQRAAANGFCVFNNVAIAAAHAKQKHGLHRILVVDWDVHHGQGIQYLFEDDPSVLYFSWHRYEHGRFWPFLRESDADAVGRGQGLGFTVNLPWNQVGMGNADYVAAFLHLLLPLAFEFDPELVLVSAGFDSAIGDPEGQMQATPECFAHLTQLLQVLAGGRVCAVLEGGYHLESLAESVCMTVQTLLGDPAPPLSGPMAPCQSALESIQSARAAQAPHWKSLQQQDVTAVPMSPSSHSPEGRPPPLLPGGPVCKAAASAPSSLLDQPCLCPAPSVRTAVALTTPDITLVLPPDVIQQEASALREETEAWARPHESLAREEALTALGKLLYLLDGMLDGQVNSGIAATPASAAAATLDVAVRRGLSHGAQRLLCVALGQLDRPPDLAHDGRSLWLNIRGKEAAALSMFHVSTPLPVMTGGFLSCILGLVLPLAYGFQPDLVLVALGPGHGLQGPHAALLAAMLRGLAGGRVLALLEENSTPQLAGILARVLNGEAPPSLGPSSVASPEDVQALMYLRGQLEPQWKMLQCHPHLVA

[9] = ABT-301 25 mg/kg PO QD, alone or + RMP1-14 200 μg IP, n=10/group
[10] = ABT-301 100 mg/kg PO QD, alone or + RMP1-14 200 μg IP, n=10/group

For `O=C(/C=C/c1ccc2c(c1)CCN2S(=O)(=O)c1ccccc1)NO` [ABT-301, (E)-N-hydroxy-3-(1-(phenylsulfonyl)-indolin-5-yl)-acrylamide], the “number of mice exhibiting partial response (PR)” value [1, 9] was 1, the “number of mice exhibiting progressive disease (PD)” value [1, 9] was 8 and the “number of mice exhibiting complete response (CR)” value [1, 10] was 2. The “number of mice exhibiting partial response (PR)” value [1, 10] was 2, the “number of mice exhibiting progressive disease (PD)” value [1, 10] was 7 and the Tumor size ([1]; ABT-301 25 mg/kg) was 806.83 ± 212.06* mm^3. The Tumor size ([1]; ABT-301 50 mg/kg) was 580.33 ± 206.53** mm^3, the Tumor size ([1]; ABT-301 100 mg/kg) was 234.59 ± 52.38** mm^3 and the IC50 [2] was 30.2 nM. The IC50 [3] was 6.61 nM, the IC50 [4] was 956 nM and the IC50 [5] was over 3000 nM. For the same compound, the IC50 [6] was over 3000 nM, the IC50 [7] was 53.2 nM and the IC50 [8] was 59.7 nM.
